Values quoted from earlier work as cited in paper PMC6155021, “Ancient and modern anticonvulsants act synergistically in a KCNQ potassium channel binding pocket” (Nature Communications, 2018).

Parameters: method as in PMID 24781306
Conditions: cited from earlier work

Compound: CC(=O)O [acetate]
- crossing of the blood brain barrier: readily cross the blood brain barrier
